US20040009495A1, “Methods and products related to drug screening using gene expression patterns” (Whitehead Institute for Biomedical Research, priority 2001, published 2004)

Tests used:
[1] = tested on: HL60 cells; experiment: HL60 cell differentiation on exposure to inducing chemical; assay type: cell-based
Description: HL60 cells, provided by American Type Cell Culture (Manassas, Va.), were grown in RPMI medium 1640 with 10% fetal bovine serum (Sigma, St. Louis, Mo.) and 1% penicillin-streptomycin. For design of the model, neutrophil differentiation was stimulated with 1 uM ATRA (Sigma, St. Louis, Mo.) for 0, 24, 48, 72, and 120 hours and with 1.25% dimethyl sulfoxide (DMSO) (American Bioanalytical, Natick, Mass.) for 72 hours. Monocyte/macrophage differentiation was induced with 10 nM phorbol 12-myristate 13-acetate (PMA) (Sigma, St. Louis, Mo.) for 0, 4, 12, and 24, and 120 hours and with Vitamin D3 (1 alpha 25-dihydroxy) (Calbiochem, San Diego, Calif.) 2.5 uM for 72 hours. Differentiation was confirmed by morphological changes by light microscopy for monocyte/macrophage differentiation and by May Grunwald Giemsa stain for neutrophil differentiation.
Acute Myeloid Leukemia (AML) represents a form of cancer for which improved treatment in therapy is greatly sought. For more than 20 years, researchers have used a cell line (HL60 cell line) which closely mimics the behavior of AML and which is easily maintained in cell culture. […] The different gene expression signatures were evaluated for “in vivo authenticity” by confirming the same gene expression differences in native human neutrophils and native human monocytes compared to patient AML cells. […]

[2] = tested on: HL60 cells; experiment: Marker gene expression ratios to GAPDH in HL60 control cells (multiplex RT-PCR, direct gene dendrimer readout); assay type: cell-based; conditions: for Ave IL1RN/GAPDH / Ave SPP1/GAPDH / IL1RN fold increase over AML / SPP1 fold increase over AML: HL60 cells; for Ave IL1RN/GAPDH / Ave SPP1/GAPDH: highest stringency filter of 50% dilution, 1 uM ATRA or 10 nM PMA; for IL1RN fold increase over AML / SPP1 fold increase over AML: versus undifferentiated HL60 (AML)
[3] = treated HL60 cells, text summary over 3 plex and 5 plex

SMILES | differentiation of HL60 cells upon exposure [1] | Ave IL1RN/GAPDH ([2]; 3 plex) | Ave SPP1/GAPDH ([2]; 3 plex) | Ave IL1RN/GAPDH ([2]; 5 plex) | Ave SPP1/GAPDH ([2]; 5 plex) | IL1RN fold increase over AML ([2]; 3 plex) | SPP1 fold increase over AML ([2]; 3 plex) | IL1RN fold increase over AML ([2]; 5 plex) | SPP1 fold increase over AML ([2]; 5 plex) | IL1RN increase with respect to AML [2, 3] | SSP1 increase over AML [2, 3]
CC1=C(/C=C/C(C)=C/C=C/C(C)=C/C(=O)O)C(C)(C)CCC1 [ATRA, all trans retinoic acid] | differentiated into neutrophils | 0.02 | 0.03 | 0.02 | 0.02 |  |  |  |  |  | 
CCCCCCCCCCCCCC(=O)O[C@@H]1[C@@H](C)[C@@]2(O)[C@@H](C=C(CO)C[C@]3(O)C(=O)C(C)=C[C@@H]23)[C@@H]2C(C)(C)[C@]12OC(C)=O [PMA, Phorbol 12-myristate 13-acetate] | differentiated into monocyte/macrophage | 2.04 | 1.17 | 0.98 | 0.55 | 84.4 fold | 55.1 fold | 40.5 fold | 25.9 fold | 40-84 fold | 25-55 fold
